Source: PubChem BioAssay AID1963860 (Molecular Pharmacology Branch, DTP, NCI, 2024)

Test system: CN0375-F725-PDC KRAS spheroid viability
Assay: Anticancer human tumor CN0375-F725-PDC patient-derived colon carcinoma cell line growth inhibition [KRAS2]
Details: spheroids with HUVEC and MSC; for viability, T/C: stronger effect = lower value
In short: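 Combination screen of spheroid viability in tumor-cell co-cultures with endothelial (HUVEC) and mesenchymal stem cell stroma. Each agent was tested in half-log dilutions, topping at clinical Cmax or at 10 microM without a known Cmax.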

[1] = curve of first compound, second compound 0.1 µM
[2] = curve of first compound, second compound 0.316 µM
[3] = curve of first compound, second compound 1 µM
[4] = curve of first compound, second compound 3.16 µM
[5] = curve of first compound, second compound 10 µM
[6] = second compound 0.1 µM, first compound 0.0316 µM
[7] = second compound 0.316 µM, first compound 0.0316 µM
[8] = second compound 1 µM, first compound 0.0316 µM
[9] = second compound 3.16 µM, first compound 0.0316 µM
[10] = second compound 10 µM, first compound 0.0316 µM
[11] = second compound 0.1 µM, first compound 0.1 µM
[12] = second compound 0.1 µM, first compound 0.316 µM
[13] = second compound 0.1 µM, first compound 1 µM
[14] = second compound 0.1 µM, first compound 3.16 µM
[15] = second compound 0.1 µM, first compound 10 µM
[16] = second compound 0.316 µM, first compound 0.1 µM
[17] = second compound 0.316 µM, first compound 0.316 µM
[18] = second compound 0.316 µM, first compound 1 µM
[19] = second compound 0.316 µM, first compound 3.16 µM
[20] = second compound 0.316 µM, first compound 10 µM
[21] = second compound 1 µM, first compound 0.1 µM
[22] = second compound 1 µM, first compound 0.316 µM
[23] = second compound 1 µM, first compound 1 µM
[24] = second compound 1 µM, first compound 3.16 µM
[25] = second compound 1 µM, first compound 10 µM
[26] = second compound 3.16 µM, first compound 0.1 µM
[27] = second compound 3.16 µM, first compound 0.316 µM
[28] = second compound 3.16 µM, first compound 1 µM
[29] = second compound 3.16 µM, first compound 3.16 µM
[30] = second compound 3.16 µM, first compound 10 µM
[31] = second compound 10 µM, first compound 0.1 µM
[32] = second compound 10 µM, first compound 0.316 µM
[33] = second compound 10 µM, first compound 1 µM
[34] = second compound 10 µM, first compound 3.16 µM
[35] = second compound 10 µM, first compound 10 µM
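Note: spheroids exposed to agents for 7 days.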

SMILES: CC(=O)Nc1cccc(-n2c(=O)n(C3CC3)c(=O)c3c(Nc4ccc(I)cc4F)n(C)c(=O)c(C)c32)c1 + C=CC(=O)N1CCN(c2nc(=O)n(-c3c(C)ccnc3C(C)C)c3nc(-c4c(O)cccc4F)c(F)cc23)C(C)C1
- IC50 [1]: 5.8 nM
- IC50 [2]: 6 nM
- IC50 [3]: 4.86 nM
- IC50 [4]: 6.07 nM
- IC50 [5]: 1.89 nM
- viability, T/C (second compound 0.1 µM, first compound 0.0001 µM): 94%
- viability, T/C (second compound 0.1 µM, first compound 0.000316 µM): 84.2%
- viability, T/C (second compound 0.1 µM, first compound 0.001 µM): 71.2%
- viability, T/C (second compound 0.1 µM, first compound 0.00316 µM): 55.7%
- viability, T/C (second compound 0.1 µM, first compound 0.01 µM): 45.1%
- viability, T/C [6]: 32.4%
- viability, T/C (second compound 0.316 µM, first compound 0.0001 µM): 101%
- viability, T/C (second compound 0.316 µM, first compound 0.000316 µM): 84%
- viability, T/C (second compound 0.316 µM, first compound 0.001 µM): 72.8%
- viability, T/C (second compound 0.316 µM, first compound 0.00316 µM): 54.5%
- viability, T/C (second compound 0.316 µM, first compound 0.01 µM): 45.7%
- viability, T/C [7]: 34.6%
- viability, T/C (second compound 1 µM, first compound 0.0001 µM): 98.1%
- viability, T/C (second compound 1 µM, first compound 0.000316 µM): 86.9%
- viability, T/C (second compound 1 µM, first compound 0.001 µM): 77.2%
- viability, T/C (second compound 1 µM, first compound 0.00316 µM): 51.1%
- viability, T/C (second compound 1 µM, first compound 0.01 µM): 44.9%
- viability, T/C [8]: 33.6%
- viability, T/C (second compound 3.16 µM, first compound 0.0001 µM): 97.7%
- viability, T/C (second compound 3.16 µM, first compound 0.000316 µM): 92.2%
- viability, T/C (second compound 3.16 µM, first compound 0.001 µM): 73%
- viability, T/C (second compound 3.16 µM, first compound 0.00316 µM): 57.1%
- viability, T/C (second compound 3.16 µM, first compound 0.01 µM): 46.2%
- viability, T/C [9]: 32.9%
- viability, T/C (second compound 10 µM, first compound 0.0001 µM): 93.7%
- viability, T/C (second compound 10 µM, first compound 0.000316 µM): 85.1%
- viability, T/C (second compound 10 µM, first compound 0.001 µM): 56.3%
- viability, T/C (second compound 10 µM, first compound 0.00316 µM): 43.9%
- viability, T/C (second compound 10 µM, first compound 0.01 µM): 35.8%
- viability, T/C [10]: 27.8%

SMILES: O=C(c1cc(Cc2n[nH]c(=O)c3ccccc23)ccc1F)N1CCN(C(=O)C2CC2)CC1
- viability, T/C (compound 0.0316 µM): 107% [middle of 5 runs]
- viability, T/C (compound 0.1 µM): 106% [middle of 5 runs]
- viability, T/C (compound 0.316 µM): 102% [middle of 5 runs]
- viability, T/C (compound 1 µM): 107% [middle of 5 runs]
- viability, T/C (compound 3.16 µM): 105% [middle of 5 runs]
- viability, T/C (compound 10 µM): 96.7% [middle of 5 runs]
- IC50 (curve of compound): > 10000 nM

SMILES: COc1cc2nccc(Oc3ccc(NC(=O)C4(C(=O)Nc5ccc(F)cc5)CC4)cc3)c2cc1OC + COc1cc2nc(C)nc(NC(C)c3cc(N)cc(C(F)(F)F)c3)c2cc1OC1CCOC1
- IC50 [1]: > 10000 nM
- IC50 [2]: 6740 nM
- IC50 [3]: 3800 nM
- IC50 [4]: 1040 nM
- IC50 [5]: < 31.6 nM
- viability, T/C [6]: 102%
- viability, T/C [11]: 99.5%
- viability, T/C [12]: 89.8%
- viability, T/C [13]: 79.3%
- viability, T/C [14]: 56.6%
- viability, T/C [15]: 59.6%
- viability, T/C [7]: 100%
- viability, T/C [16]: 96.6%
- viability, T/C [17]: 90.2%
- viability, T/C [18]: 74.8%
- viability, T/C [19]: 52.6%
- viability, T/C [20]: 48.7%
- viability, T/C [8]: 88.4%
- viability, T/C [21]: 91.6%
- viability, T/C [22]: 83.8%
- viability, T/C [23]: 75%
- viability, T/C [24]: 50.3%
- viability, T/C [25]: 44.2%
- viability, T/C [9]: 76.2%
- viability, T/C [26]: 81.6%
- viability, T/C [27]: 70.4%
- viability, T/C [28]: 52.4%
- viability, T/C [29]: 16.7%
- viability, T/C [30]: 9.46%
- viability, T/C [10]: 15.8%
- viability, T/C [31]: 4.08%
- viability, T/C [32]: 7.08%
- viability, T/C [33]: 16.8%
- viability, T/C [34]: 0.92%
- viability, T/C [35]: 0.22%

SMILES: CC1OCC2(CCN(c3cnc(Sc4ccnc(N)c4Cl)c(N)n3)CC2)C1N (configuration not stated) + CNCc1ccccc1-c1csc(C(C)Nc2nc(C)nc3cc(OC)c(OC)cc23)c1
- IC50 [1]: > 10000 nM
- IC50 [2]: > 10000 nM
- IC50 [3]: 150 nM
- IC50 [4]: < 31.6 nM
- IC50 [5]: < 31.6 nM
- viability, T/C [6]: 95.7%
- viability, T/C [11]: 86.1%
- viability, T/C [12]: 75.8%
- viability, T/C [13]: 78.5%
- viability, T/C [14]: 76.3%
- viability, T/C [15]: 61.4%
- viability, T/C [7]: 94.2%
- viability, T/C [16]: 83.7%
- viability, T/C [17]: 73.7%
- viability, T/C [18]: 76.2%
- viability, T/C [19]: 67.2%
- viability, T/C [20]: 50.5%
- viability, T/C [8]: 55.3%
- viability, T/C [21]: 53.7%
- viability, T/C [22]: 43.7%
- viability, T/C [23]: 39%
- viability, T/C [24]: 27.7%
- viability, T/C [25]: 11.5%
- viability, T/C [9]: 0.54%
- viability, T/C [26]: 0.29%
- viability, T/C [27]: 0.49%
- viability, T/C [28]: 0.25%
- viability, T/C [29]: 0.31%
- viability, T/C [30]: 0.37%
- viability, T/C [10]: 0.19%
- viability, T/C [31]: 0.41%
- viability, T/C [32]: 0.27%
- viability, T/C [33]: 0.2%
- viability, T/C [34]: 0.53%
- viability, T/C [35]: 0.17%

SMILES: COC(=O)c1ccc2c(C(=Nc3ccc(N(C)C(=O)CN4CCN(C)CC4)cc3)c3ccccc3)c(O)[nH]c2c1 + CNCc1ccccc1-c1csc(C(C)Nc2nc(C)nc3cc(OC)c(OC)cc23)c1
- IC50 [1]: 3220 nM
- IC50 [2]: 1570 nM
- IC50 [3]: 3840 nM
- IC50 [4]: < 31.6 nM
- IC50 [5]: < 31.6 nM
- viability, T/C [6]: 95.2%
- viability, T/C [11]: 95.4%
- viability, T/C [12]: 86.6%
- viability, T/C [13]: 83.5%
- viability, T/C [14]: 50.3%
- viability, T/C [15]: 0.35%
- viability, T/C [7]: 94.7%
- viability, T/C [16]: 88%
- viability, T/C [17]: 84.3%
- viability, T/C [18]: 73.1%
- viability, T/C [19]: 14.9%
- viability, T/C [20]: 0.2%
- viability, T/C [8]: 84.7%
- viability, T/C [21]: 87.9%
- viability, T/C [22]: 77.3%
- viability, T/C [23]: 68%
- viability, T/C [24]: 65%
- viability, T/C [25]: 0.24%
- viability, T/C [9]: 1%
- viability, T/C [26]: 0.73%
- viability, T/C [27]: 0.68%
- viability, T/C [28]: 1.02%
- viability, T/C [29]: 0.63%
- viability, T/C [30]: 0.32%
- viability, T/C [10]: 0.63%
- viability, T/C [31]: 0.51%
- viability, T/C [32]: 0.5%
- viability, T/C [33]: 0.37%
- viability, T/C [34]: 0.61%
- viability, T/C [35]: 0.3%
